No end group written: not given here.
Experiments:
HIV-1IIIB = assay: HIV-1 antiviral assay in CEM-SS cells; format: cell-based
[1] = system: Primary Human endothelial cells (HUVEC); assay: Endothelial cell migration assay; format: cell-based; settings: 10 micrograms per ml; 22 hours
Experimental: Primary Human endothelial cells (HUVEC) were seeded in insert chambers with 3 micrometer pore size of multi-transwell plate for 6 hours at 37° C. in Endothelial Cell Basal Medium (EBM) supplemented with 0.1% bovine serum albumin. Thereafter, designated concentration of test peptides—10 micrograms per ml—was added in duplicate wells. The endothelia were allowed to migrate for 22 hours at 37° C., then, migrated cells were fixed and stained with Hoechst 33342 dye. Images of 3 fields per insert were taken and the number of migrated cells per field were quantified using the ImageProPlus software. Data were analyzed for the average number of the migrated cells and standard deviation of six data points for each treatment condition. […] Statistic p values were computed using the Student's t-test.

HCMV strain AD169 = assay: HCMV plaque formation assay; settings: MRC-5 cells; for inhibition of HCMV plaque formation as compared to the virus control: 10 micrograms per ml, 7-10 days
Streptococcus pneumoniae = Streptococcus pneumoniae assay; settings: 10 micrograms per ml; 5×10^5 CFU/mL
murine spleen cells = assay: Th1/Th2 cytokine profiling assay; settings: 10 micrograms per ml; Ovalbumin restimulation; 72 hours
Text: The Balb/c mice (originated in 1923, it is a popular strain and is used in many different research disciplines. Also classified as an inbred from the production of 20 or more successive brother-sister matings, the Balb/c mouse is albino and small in size) were immunized on Days 1, 15, and 29 with Ovalbumin (Ovalbumin is the main protein found in egg white, commonly used to stimulate an immunological reaction in test animals) in PBS (5 micrograms/injection). On day 50, spleens of the mice were harvested (3 weeks after last boost with Ovalbumin). […] Thereafter, additional Ovalbumin was added to the cells at 10 micrograms/ml for in vitro restimulation of the cells. 72 hours later, cell supernatants were harvested and assayed using the Becton Dickinson Mouse Th1/Th2 Cytokine CBA Kit. This kit can be used to measure Interleukin-2 (IL-2), Interleukin-4 (IL-4), Interleukin-5 (IL-5), Interferon-γ (IFN-γ), and Tumor Necrosis Factor-α (TNF-α) protein levels in a single sample.

HUVEC = assay: Endothelial tube formation assay; settings: 10 micrograms per ml; 20 hours
Experimental: The endothelial tube formation assay is based on the ability of endothelial cells to form three-dimensional capillary-like tubular structures when cultured on a gel of basement membrane extract. […] Pre-labeled HUVEC with Calcein AM were seeded in a 96-well culture plate coated with extracellular metrix (Chemicon international Cat. ECM625) and treated with test peptides—10 micrograms per ml—in full growth medium. Positive control was vehicle only. The endothelial cells were allowed to form tubes for 20 hours and were then examined under an inverted fluorescent microscope. Duplicate wells for each treatment were photographed and quantitatively analyzed for an average tubule length using image analysis software ImageProPlus. Raw data were expressed as average tubule lengths in pixels ±standard deviation. Statistic p values were computed using the Student's t-test.

[2] = system: hepatitis B virus (HBV) ayw strain; assay: HBV experimental assay system (secreted HBV DNA, TaqMan PCR); format: cell-based; settings: 10 micrograms per ml; HepG2-2.2.15; six days; HBV DNA in supernatant

| Compound | antiviral activity of positive control compounds (HIV-1IIIB) | inhibition of HCMV plaque formation as compared to the virus control (HCMV strain AD169) | inhibition of the growth of Streptococcus pneumoniae (Streptococcus pneumoniae) [%] | change of the production of IFN-γ (murine spleen cells) | change of the production of IL-5 (murine spleen cells) | induction of the production of IL-2 (murine spleen cells) [%] | induction of the production of IL-4 (murine spleen cells) [%] | induction of the production of TNF-alpha (murine spleen cells) [%] | other results |
| --- | --- | --- | --- | --- | --- | --- | --- | --- | --- |
| CC(C)(C)NC(=O)[C@@H]1CN(Cc2cccnc2)CCN1C[C@@H](O)C[C@@H](Cc1ccccc1)C(=O)N[C@H]1c2ccccc2C[C@H]1O [indinavir] | expected levels of antiviral activity | – | – | – | – | – | – | – | – |
| His-Ser-Leu-Gly-Lys-Trp-Leu-Gly-His-Pro-Asp-Lys-Phe (HSLGKWLGHPDKF; printed: His-Ser-Leu-Gly-Lys-Trp-Leu-Gly-His-Pro-Asp-Lys-Phe) [Peptide 1] | – | did not inhibit | 100 | did not significantly change | did not significantly change | 106.5 | 117.8 | 21.2 | inhibition of the migration of human endothelial cells [1]: 12%; inhibition of the tube formation of human endothelial cells (HUVEC): 10% |
| Gly-Arg-Gly-Asp-Asn-Pro-OH (GRGDNP-OH) [Peptide 2] | – | did not inhibit | 100 | did not significantly change | did not significantly change | 58.8 | 55.6 | 23.7 | inhibition of HBV replication as compared to the virus control infection [2]: 36.4%; increase of the tube formation of endothelial cells (HUVEC): 6% |
| Cc1cn([C@H]2C[C@H](N=[N+]=[N-])[C@@H](CO)O2)c(=O)[nH]c1=O [AZT] | expected levels of antiviral activity | – | – | – | – | – | – | – | – |
| Nc1nc(O)c2ncn(COC(CO)CO)c2n1 [Ganciclovir, reference compound] | – | – | – | – | – | – | – | – | antiviral activity of positive control compound (HCMV strain AD169; positive control, HCMV): expected levels of antiviral activity |

— patent publication US20100204134A1, “USE OF THE PEPTIDE HIS-SER-LEU-GLY-LYS-TRP-LEU-GLY-HIS-PRO-ASP-LYS-PHE ALONE OR IN COMBINATION WITH THE PEPTIDE GLY-ARD-GLY-ASP-ASN-PRO-OH AS A THERAPEUTIC AGENT” (priority 2007, published 2010)
